In ChEMBL document CHEMBL6074675, “4-Substituted-2-Thiazole Amides as Viral Replication Inhibitors of Alphaviruses” (J Med Chem, 2024):
Activity calls are given as the source filed them. The calls are words filed in the database; no cut-off is given here.

How the values were obtained:
Chikungunya virus [1] = test: Antiviral activity against Chikungunya virus S27 infected in golden hamster BHK-21 cells assessed as inhibition of virus-induced cytopathic effect measured after 4 days by microscopic analysis; type: functional, organism-based; conditions: S27, BHK-21, 96 h
Homo sapiens [2] = species: Homo sapiens; test: Inhibition of Numb-asociated kinase (unknown origin) upto 10 uM relative to control
Chikungunya virus [3] = test: Antiviral activity against Chikungunya virus 181/25 infected in human NHDF cells assessed as log reduction of virus titer at 10 uM treated with cells at 1 hr prior to infection and measured at 24 hrs post-infection by plaque assay; type: functional; conditions: time 25 hrs
[4] = Cytotoxicity against human NHDF cells assessed as reduction in cell viability incubated for 24 hrs by CellTiter Glo luminescence assay; type: toxicity, cell-based
[5] = Half life in C57BL/6 mouse at 40 mg/kg, po; type: ADME, organism-based; conditions: in vivo
Homo sapiens [6] = species: Homo sapiens; test: Inhibition of MAPK (unknown origin) upto 10 uM relative to control
Chikungunya virus [7] = test: Antiviral activity against Chikungunya virus 181/25 infected in C57BL/6J mouse assessed as reduction in viral dissemination to quadriceps at 80 mg/kg, ip bid for 3 days infected with virus at 2 hrs after first compound treatment and measured at 12 hrs post-final dose by RT-qPCR analysis; type: functional, organism-based; conditions: time 3.0 day
[8] = AUC in C57BL/6 mouse at 40 mg/kg, ip; type: ADME, organism-based; conditions: in vivo
Homo sapiens [9] = species: Homo sapiens; test: Inhibition of CDK (unknown origin) upto 10 uM relative to control
[10] = Cmax in C57BL/6 mouse at 40 mg/kg, ip; type: ADME, organism-based; conditions: in vivo
[11] = Oral bioavailability in C57BL/6 mouse at 40 mg/kg; type: ADME, organism-based; conditions: in vivo
Chikungunya virus [12] = test: Antiviral activity against Chikungunya virus 181/25 infected in C57BL/6J mouse assessed as reduction in viral load in ipsilateral ankle at 80 mg/kg, ip bid for 3 days infected with virus at 2 hrs after first compound treatment and measured at 12 hrs post-final treatment; type: functional, organism-based; conditions: time 3.0 day
Chikungunya virus [13] = test: Antiviral activity against Chikungunya virus 181/25 infected in C57BL/6J mouse assessed as reduction in viral dissemination to spleen at 80 mg/kg, ip bid for 3 days infected with virus at 2 hrs after first compound treatment and measured at 12 hrs post-final dose by RT-qPCR analysis; type: functional, organism-based; conditions: time 3.0 day
[14] = system: Venezuelan equine encephalitis virus; test: Antiviral activity against VEEV TC-83 infected in human NHDF cells assessed as reduction of virus titer treated with cells at 1 hr prior to infection and measured at 24 hrs post-infection by plaque assay; type: functional; conditions: TC-83, NHDF, time 25 hrs
dengue virus type 2 [15] = test: Antiviral activity against Dengue virus 2 NGC infected in human HEK293 cells assessed as reduction of virus load measured at 3 days post-infection by focus-forming assay; type: functional; conditions: HEK293, 72 h, time 3 day
[16] = Cytotoxicity against human HEK293 cells; type: toxicity, cell-based
dengue virus type 2 [17] = test: Antiviral activity against Dengue virus 2 NGC infected in human HEK293 cells assessed as log reduction of virus titer at 10 uM measured at 3 days post-infection by focus-forming assay; type: functional; conditions: time 3 day
[18] = system: Venezuelan equine encephalitis virus; test: Antiviral activity against VEEV TC-83 infected in human NHDF cells assessed as log reduction of virus titer at 10 uM treated with cells at 1 hr prior to infection and measured at 24 hrs post-infection by plaque assay; type: functional; conditions: time 25 hrs
West Nile virus [19] = test: Antiviral activity against West Nile virus NY99 infected in human HEK293 cells assessed as reduction of virus load measured at 3 days post-infection by focus-forming assay; type: functional; conditions: NY99, HEK293, 72 h, time 3 day
Chikungunya virus [20] = test: Antiviral activity against Chikungunya virus 181/25 infected in C57BL/6J mouse assessed as reduction in footpad swelling at 80 mg/kg, ip bid for 3 days infected with virus at 2 hrs after first compound treatment and measured at 12 hrs post-final treatment by digital caliper analysis; type: functional, organism-based; conditions: time 3.0 day
[21] = Half life of the compound in human liver microsomes in presence of NADPH by LC-MS/MS analysis; type: ADME, Microsome
[22] = Cytotoxicity against human NHDF cells deficient of IRF3 assessed as reduction in cell viability incubated for 72 hrs by CellTiter Glo luminescence assay; type: toxicity, cell-based
Zika virus [23] = test: Antiviral activity against Zika virus PRABC59 infected in human HEK293 cells assessed as log reduction of virus titer at 10 uM measured at 3 days post-infection by focus-forming assay; type: functional; conditions: time 3 day
[24] = Half life of the compound in mouse liver microsomes in presence of NADPH by LC-MS/MS analysis; type: ADME, Microsome
[25] = target: Dihydroorotate dehydrogenase (quinone), mitochondrial (Homo sapiens) (UniProt Q02127); test: Inhibition of human DHODH
Dihydroorotate dehydrogenase (quinone), mitochondrial (Homo sapiens), sequence (Q02127 whole entry): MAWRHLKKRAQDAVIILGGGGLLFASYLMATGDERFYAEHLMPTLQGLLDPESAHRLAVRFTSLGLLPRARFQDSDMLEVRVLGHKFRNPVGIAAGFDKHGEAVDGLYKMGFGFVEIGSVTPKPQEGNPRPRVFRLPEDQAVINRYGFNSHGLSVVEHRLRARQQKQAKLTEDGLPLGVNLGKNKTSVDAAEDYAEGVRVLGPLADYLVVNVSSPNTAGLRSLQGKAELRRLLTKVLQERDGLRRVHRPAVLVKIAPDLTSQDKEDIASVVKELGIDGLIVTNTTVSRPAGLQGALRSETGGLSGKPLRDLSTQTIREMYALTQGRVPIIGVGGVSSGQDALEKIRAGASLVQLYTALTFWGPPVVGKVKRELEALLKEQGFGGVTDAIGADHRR

Chikungunya virus [26] = test: Antiviral activity against Chikungunya virus 181/25 infected in human NHDF cells assessed as inhibition of viral entry at 10 uM pretreated with virus for 2 hrs prior to infection and measured at 24 hrs post-infection by plaque assay; type: functional, organism-based; conditions: time 26.0 hrs
[27] = Bioavailability in C57BL/6 mouse at 40 mg/kg, sc; type: ADME, organism-based; conditions: in vivo
[28] = Half life in C57BL/6 mouse at 1 mg/kg, iv; type: ADME, organism-based; conditions: in vivo
[29] = AUC in C57BL/6 mouse at 40 mg/kg, sc; type: ADME, organism-based; conditions: in vivo
[30] = Bioavailability in C57BL/6 mouse at 40 mg/kg, ip; type: ADME, organism-based; conditions: in vivo
Heme oxygenase 1 = target: T1, Heme oxygenase 1 (Homo sapiens, UniProt P09601); test: Inhibition of HO-1 (unknown origin)
T1 sequence (P09601 whole entry): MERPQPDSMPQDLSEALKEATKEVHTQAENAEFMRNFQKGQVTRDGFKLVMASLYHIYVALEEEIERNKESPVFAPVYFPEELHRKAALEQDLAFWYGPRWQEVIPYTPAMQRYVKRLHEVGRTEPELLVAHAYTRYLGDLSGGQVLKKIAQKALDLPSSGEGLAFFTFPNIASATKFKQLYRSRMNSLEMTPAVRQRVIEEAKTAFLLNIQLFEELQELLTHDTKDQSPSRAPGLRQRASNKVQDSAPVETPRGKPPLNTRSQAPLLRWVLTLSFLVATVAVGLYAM

[31] = Octanol/PBS buffer distribution coefficient, logD of the compound at pH 7.5 by LC-MS analysis; type: physicochemical
[32] = Half life in C57BL/6 mouse at 40 mg/kg, sc; type: ADME, organism-based; conditions: in vivo
Zika virus [33] = test: Antiviral activity against Zika virus PRABC59 infected in human HEK293 cells assessed as reduction of virus load measured at 3 days post-infection by focus-forming assay; type: functional; conditions: PRABC59, HEK293, 72 h, time 3 day
Chikungunya virus [34] = test: Antiviral activity against Chikungunya virus 181/25 infected in human NHDF cells assessed as inhibition of viral translation by measuring decrease in E2 protein expression at 10 uM cells treated with compound prior to infection and measured at 12 hrs post-infection by western blot analysis; type: functional, organism-based
Chikungunya virus [35] = test: (§1) Antiviral activity against Chikungunya virus 181/25 infected in human NHDF cells assessed as inhibition of viral RNA synthesis by measuring 26S subgenomic RNA accumulation at 10 uM treated with cells for 1 hr prior to infection and measured at 12 hrs post-infection by DIG-labeled probe based Northern blot analysis; type: functional, organism-based; conditions: time 13.0 hrs
West Nile virus [36] = test: Antiviral activity against West Nile virus NY99 infected in human HEK293 cells assessed as log reduction of virus titer at 10 uM measured at 3 days post-infection by focus-forming assay; type: functional; conditions: time 3 day
Chikungunya virus [37] = test: as §1, with “49S genomic” for “26S subgenomic”; type: functional, organism-based; conditions: time 13.0 hrs
[38] = Kinetic solubility of the compound in simulated intestinal fluid at pH 7.5 by LC-MS analysis; type: physicochemical; conditions: read-out: Kinetic_solubility
Chikungunya virus [39] = test: Antiviral activity against Chikungunya virus 181/25 infected in human NHDF cells assessed as inhibition of infectious virus production at 10 uM treated with infectious cells at 6 hrs post-infection and measured at 48 hrs post-infection following culturing on Vero cells by limiting dilution plaque assay; type: functional, organism-based; conditions: time 42.0 hrs
[40] = AUC in C57BL/6 mouse at 1 mg/kg, iv; type: ADME, organism-based; conditions: in vivo
[41] = Cmax in C57BL/6 mouse at 40 mg/kg, po; type: ADME, organism-based; conditions: in vivo
Homo sapiens [42] = species: Homo sapiens; test: Inhibition of PI3K/Akt/mTOR (unknown origin) upto 10 uM relative to control
[43] = target: Epidermal growth factor receptor (Homo sapiens) (UniProt P00533); test: Inhibition of EGFR (unknown origin) upto 10 uM relative to control
Epidermal growth factor receptor (Homo sapiens), sequence (P00533 whole entry): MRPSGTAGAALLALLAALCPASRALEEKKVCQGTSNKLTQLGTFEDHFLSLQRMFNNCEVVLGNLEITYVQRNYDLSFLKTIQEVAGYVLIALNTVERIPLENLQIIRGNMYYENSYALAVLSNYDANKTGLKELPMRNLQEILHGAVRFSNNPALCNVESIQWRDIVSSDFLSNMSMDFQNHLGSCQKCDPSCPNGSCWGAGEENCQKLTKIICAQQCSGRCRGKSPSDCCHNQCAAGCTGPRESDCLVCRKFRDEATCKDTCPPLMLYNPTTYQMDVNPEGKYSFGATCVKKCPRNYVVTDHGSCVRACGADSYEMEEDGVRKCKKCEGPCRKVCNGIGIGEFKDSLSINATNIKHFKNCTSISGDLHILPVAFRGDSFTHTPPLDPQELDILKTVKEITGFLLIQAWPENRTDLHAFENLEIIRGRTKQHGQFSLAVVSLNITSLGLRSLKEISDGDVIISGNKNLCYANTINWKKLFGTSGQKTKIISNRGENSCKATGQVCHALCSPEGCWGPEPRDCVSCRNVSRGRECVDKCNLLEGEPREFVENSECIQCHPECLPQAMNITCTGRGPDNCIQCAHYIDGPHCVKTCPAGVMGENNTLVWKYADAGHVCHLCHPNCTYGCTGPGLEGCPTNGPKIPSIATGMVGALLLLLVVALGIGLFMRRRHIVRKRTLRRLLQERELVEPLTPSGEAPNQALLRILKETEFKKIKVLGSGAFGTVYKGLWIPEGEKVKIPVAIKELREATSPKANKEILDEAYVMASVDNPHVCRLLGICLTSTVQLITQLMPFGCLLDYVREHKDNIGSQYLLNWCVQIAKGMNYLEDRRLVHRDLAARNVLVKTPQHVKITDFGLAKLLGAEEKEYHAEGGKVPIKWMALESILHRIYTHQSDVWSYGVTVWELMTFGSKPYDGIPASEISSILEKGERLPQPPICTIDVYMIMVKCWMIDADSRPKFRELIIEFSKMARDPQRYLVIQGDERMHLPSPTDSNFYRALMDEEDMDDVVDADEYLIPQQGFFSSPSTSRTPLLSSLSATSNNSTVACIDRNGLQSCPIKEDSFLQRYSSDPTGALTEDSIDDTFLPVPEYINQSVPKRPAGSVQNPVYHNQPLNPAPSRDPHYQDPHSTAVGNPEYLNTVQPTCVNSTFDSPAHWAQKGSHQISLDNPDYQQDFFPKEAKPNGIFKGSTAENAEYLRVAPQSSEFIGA

[44] = Half life in C57BL/6 mouse at 40 mg/kg, ip; type: ADME, organism-based; conditions: in vivo
[45] = Cmax in C57BL/6 mouse at 40 mg/kg, sc; type: ADME, organism-based; conditions: in vivo
Chikungunya virus [46] = test: Antiviral activity against Chikungunya virus 181/25 infected in C57BL/6J mouse assessed as reduction in viral load in contralateral ankle at 80 mg/kg, ip bid for 3 days infected with virus at 2 hrs after first compound treatment and measured at 12 hrs post-final treatment; type: functional, organism-based; conditions: time 3.0 day
[47] = AUC in C57BL/6 mouse at 40 mg/kg, po; type: ADME, organism-based; conditions: in vivo

O=C(CCN1CCOCC1)c1c(CO)c2ccccc2[nH]c1=O
EC50 (Chikungunya virus [1]): 2200 nM

CSc1ncccc1C(=O)Nc1nc(-c2cccc(Nc3ccc(C#N)cc3)c2)cs1
inhibition (Homo sapiens [2]): < 30% | log(activity) (Chikungunya virus [3]): 8.7 | CC50 at 24 h [4]: > 30000 nM | half-life [5]: 2.38 h | inhibition (Homo sapiens [6]): < 30% | Activity (Chikungunya virus [7]): Active | AUC [8]: 30600 ng·h/mL | inhibition (Homo sapiens [9]): < 30% | Cmax [10]: 2460 ng/mL | bioavailability [11]: 45% | Activity (Chikungunya virus [12]): inactive | Activity (Chikungunya virus [13]): Active | EC90 [14]: 190 nM | EC90 (dengue virus type 2 [15]): 120 nM | CC50 [16]: > 30000 nM | log(activity) (dengue virus type 2 [17]): 2.6 | log(activity) [18]: 5.9 | EC90 (West Nile virus [19]): 750 nM | Activity (Chikungunya virus [20]): inactive | half-life [21]: 0.383 h | CC50 at 72 h [22]: > 30000 nM | log(activity) (Zika virus [23]): 3.5 | half-life [24]: 1.23 h | inhibition [25]: Active | Activity (Chikungunya virus [26]): inactive | bioavailability [27]: 5% | half-life [28]: 1.78 h | AUC [29]: 1520 ng·h/mL | bioavailability [30]: 91% | EC50 (Heme oxygenase 1): > 50000 nM | logD [31]: > 4.04 | half-life [32]: 5.7 h | EC90 (Zika virus [33]): 170 nM | Activity (Chikungunya virus [34]): Active | Activity (Chikungunya virus [35]): inactive | log(activity) (West Nile virus [36]): 2.6 | Activity (Chikungunya virus [37]): inactive | solubility kinetic [38]: < 1 µM | Activity (Chikungunya virus [39]): Active | AUC [40]: 821 ng·h/mL | Cmax [41]: 2100 ng/mL | inhibition (Homo sapiens [42]): < 30% | inhibition [43]: < 30% | half-life [44]: 3.52 h | Cmax [45]: 142 ng/mL | Activity (Chikungunya virus [46]): inactive | AUC [47]: 15300 ng·h/mL
